Test [1] addresses PI3Kalpha (Homo sapiens (Human), UniProt P42336). In words: HTRF PI3K biochemical assay, alpha isoform (selectivity versus delta). Conditions: relative ratio PI3K-alpha IC50 value / PI3K-delta IC50 value. The text has this:
(§1) HTRF PI3K Biochemical Assay to Measure Intrinsic Potency of Compound Inhibitors
(§2) The PI3-Kinase biochemical assays were developed to measure the intrinsic potency and compound dependent inhibition of the alpha, beta, delta, and gamma PI3K isoform enzymes. This assay was developed and further optimized from a kit produced by Upstate (Millipore catalog #33-047) (Millipore Sigma, Billerica Mass., USA) and has been configured for high throughput screening (HTS) and structure-activity relationship (SAR) screening. Briefly, this procedure exploits the exquisite specificity and high affinity binding of […] phosphatidyl(3,4,5)triphosphate (PIP3) to the GRP1 pleckstrin homology (PH) domain to generate the signal. In the absence of PIP3, an HTRF (Homogeneous Time-Resolved Fluorescence energy transfer) complex is formed consisting of europium (u)-labeled anti-GST, GST tagged GRP1-PH domain, biotin-PIP3 (biotinylated-PIP3) and streptavidin conjugated APC (Allophycocyanin). The native PIP3 produced by PI3-Kinase activity disrupts in a competitive manner the biotin-PIP3 from the pleckstrin homology (PH) domain, resulting in the loss of energy transfer (HTRF complex) and a decrease in the signal. The format of this assay is the same for all 4 isoforms of PI3K; the differences lie in the concentration of enzyme used to achieve robust assay window. The alpha, beta, and delta assays are run at 0.5, 1, and 0.3 nM enzymes and the gamma assay is run at 5 nM enzyme. The ATP concentration is 100 uM in the alpha, beta, and delta assays and 50 uM adenosine triphosphate (ATP) in the gamma assay. All reactions are run at 5 uM PIP2.
(§3) Compounds are serially diluted (3-fold in 100% DMSO) across a 384-well polypropylene source plated from column 3 to column 12 and column 13 to column 22, to yield 10 concentration dose response for each test compound. Columns 1, 2, 23 and 24 contain either only DMSO or pharmacological known control inhibitor. Once titrations are made, 2.5 nL of the compounds on 384 well plates are reformatted and transferred by acoustic dispense in quadruplicates to a 1536 assay plate (Greiner) to assay across all four PI3K isoform enzymes.
(§4) The PI3-Kinase biochemical assay was optimized using the HTRF kit provided by Upstate (Millipore). The assay kit contains six reagents: 1) 4× Reaction Buffer; 2) native PIP2 (substrate); 3) Stop (EDTA); 4) Detection Mix A (Streptavidin-APC); 5) Detection Mix B (Eu-labeled Anti-GST plus GST-tagged PH-domain); 6) Detection Mix C. In addition, the following items were obtained or purchased; PI3Kinase (catalog #'s alpha 14-602, beta 14-603, gamma 14-558 and delta 14-604 from Upstate Biotechnology now EMD Millipore, Mahopac, N.Y., USA), dithiothreitol (Sigma-Aldrich Corp. (St. Louis, Mo., USA) Catalog #D-5545), Adenosine-5′ triphosphate (InVitrogen (Waltham, Mass., USA), Cat#AS001A), native PIP3 (PI(3,4,5)P3, diC8, H^+, CELLSIGNALS, INC., (Columbus, Ohio, USA) Cat #907) DMSO ((Sigma-Aldrich Corp. (St. Louis, Mo., USA) Catalog #472301).
(§5) PI3Kinase Reaction Buffer is prepared by dilution the stock 1:4 with de-ionized water. DTT (DL-Dithiothreitol), phosphatidylinositol 4,5-bisphosphate (PIP2) and Biotin-PIP3 were added to 1536 assay plate at a final concentration of 5 mM, […] and 25 nM on the day of use. Enzyme addition and compound pre-incubation are initiated by the addition of 1.25 ul of PI3K (at twice its final concentration) in the 1× reaction buffer to all wells using a BioRaptr™ (Beckman Coulter, Waltham, Mass. USA). Plates are incubated at room temperature for 15 minutes. Reactions are initiated by addition of 1.25 ul of 2× substrate solution (PIP2 and ATP in 1× reaction buffer) using BioRaptr™. Plates are incubated in humidified chamber at room temperature for one hour. Reactions are quenched by addition of 0.625 uL of stop solution to all wells using the BioRaptr™. […]
Background: In TR-FRET formats the signal depends on donor and acceptor labels being close together.

Test [2] deals with PI3Kdelta (Homo sapiens (Human), UniProt O00329). In words: HTRF PI3K biochemical assay, delta isoform. Conditions: 0.3 nM enzyme, 100 uM ATP, 5 uM PIP2, form screened per table.
Chain of PI3Kdelta (O00329 whole entry, canonical isoform): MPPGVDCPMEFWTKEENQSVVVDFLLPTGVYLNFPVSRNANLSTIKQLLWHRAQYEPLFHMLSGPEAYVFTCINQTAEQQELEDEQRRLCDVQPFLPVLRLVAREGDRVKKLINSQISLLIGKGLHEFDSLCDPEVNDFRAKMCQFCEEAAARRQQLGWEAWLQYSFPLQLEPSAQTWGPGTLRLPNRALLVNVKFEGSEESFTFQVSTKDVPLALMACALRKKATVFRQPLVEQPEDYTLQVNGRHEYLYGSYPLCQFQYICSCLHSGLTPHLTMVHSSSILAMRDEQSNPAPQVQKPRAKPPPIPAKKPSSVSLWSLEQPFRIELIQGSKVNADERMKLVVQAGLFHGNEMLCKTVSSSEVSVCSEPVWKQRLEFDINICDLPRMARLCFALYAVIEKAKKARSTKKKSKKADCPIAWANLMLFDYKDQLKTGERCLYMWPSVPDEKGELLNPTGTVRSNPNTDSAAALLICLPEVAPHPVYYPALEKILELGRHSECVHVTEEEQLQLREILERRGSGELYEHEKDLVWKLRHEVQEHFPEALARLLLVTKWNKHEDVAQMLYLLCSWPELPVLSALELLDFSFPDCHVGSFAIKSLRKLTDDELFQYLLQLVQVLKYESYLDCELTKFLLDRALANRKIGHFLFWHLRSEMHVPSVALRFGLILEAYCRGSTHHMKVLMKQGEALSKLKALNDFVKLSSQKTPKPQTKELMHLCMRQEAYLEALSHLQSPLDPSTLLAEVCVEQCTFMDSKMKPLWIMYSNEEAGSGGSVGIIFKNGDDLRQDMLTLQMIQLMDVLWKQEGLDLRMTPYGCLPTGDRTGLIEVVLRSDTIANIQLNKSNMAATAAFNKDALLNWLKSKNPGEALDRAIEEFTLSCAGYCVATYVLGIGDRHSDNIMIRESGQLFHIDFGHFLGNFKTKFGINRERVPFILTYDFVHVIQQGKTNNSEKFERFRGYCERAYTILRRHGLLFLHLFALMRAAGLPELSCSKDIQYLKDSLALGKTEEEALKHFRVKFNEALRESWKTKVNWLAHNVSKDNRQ
Chain of PI3Kdelta (P27986 whole entry partner, canonical isoform): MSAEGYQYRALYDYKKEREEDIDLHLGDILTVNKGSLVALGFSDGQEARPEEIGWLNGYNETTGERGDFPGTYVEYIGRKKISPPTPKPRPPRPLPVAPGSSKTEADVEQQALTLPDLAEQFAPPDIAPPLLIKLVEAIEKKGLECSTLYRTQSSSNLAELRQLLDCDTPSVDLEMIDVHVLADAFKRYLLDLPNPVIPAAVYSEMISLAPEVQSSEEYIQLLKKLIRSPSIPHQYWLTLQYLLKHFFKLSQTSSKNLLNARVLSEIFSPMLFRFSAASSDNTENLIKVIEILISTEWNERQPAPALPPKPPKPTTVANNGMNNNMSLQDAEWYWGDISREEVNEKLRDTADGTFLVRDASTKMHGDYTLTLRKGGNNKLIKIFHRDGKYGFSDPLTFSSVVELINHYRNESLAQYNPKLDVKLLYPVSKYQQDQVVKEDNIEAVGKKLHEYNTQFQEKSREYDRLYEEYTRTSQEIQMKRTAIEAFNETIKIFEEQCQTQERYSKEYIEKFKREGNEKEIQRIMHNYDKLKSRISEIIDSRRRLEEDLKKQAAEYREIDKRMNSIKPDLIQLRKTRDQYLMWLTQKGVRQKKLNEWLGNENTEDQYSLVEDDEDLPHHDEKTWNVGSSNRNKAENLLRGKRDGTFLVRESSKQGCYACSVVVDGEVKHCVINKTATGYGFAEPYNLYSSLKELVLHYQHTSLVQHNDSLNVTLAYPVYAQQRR
Description: as §1, §2, §3, §4, §5

Experimental findings from US11230547B2, “Purine inhibitors of human phosphatidylinositol 3-kinase delta” (Merck Sharp & Dohme Corp., priority 2017, dated 2022) are described below.

The structures appear in SMILES notation.

Chain of PI3Kalpha (P42336 whole entry, canonical isoform): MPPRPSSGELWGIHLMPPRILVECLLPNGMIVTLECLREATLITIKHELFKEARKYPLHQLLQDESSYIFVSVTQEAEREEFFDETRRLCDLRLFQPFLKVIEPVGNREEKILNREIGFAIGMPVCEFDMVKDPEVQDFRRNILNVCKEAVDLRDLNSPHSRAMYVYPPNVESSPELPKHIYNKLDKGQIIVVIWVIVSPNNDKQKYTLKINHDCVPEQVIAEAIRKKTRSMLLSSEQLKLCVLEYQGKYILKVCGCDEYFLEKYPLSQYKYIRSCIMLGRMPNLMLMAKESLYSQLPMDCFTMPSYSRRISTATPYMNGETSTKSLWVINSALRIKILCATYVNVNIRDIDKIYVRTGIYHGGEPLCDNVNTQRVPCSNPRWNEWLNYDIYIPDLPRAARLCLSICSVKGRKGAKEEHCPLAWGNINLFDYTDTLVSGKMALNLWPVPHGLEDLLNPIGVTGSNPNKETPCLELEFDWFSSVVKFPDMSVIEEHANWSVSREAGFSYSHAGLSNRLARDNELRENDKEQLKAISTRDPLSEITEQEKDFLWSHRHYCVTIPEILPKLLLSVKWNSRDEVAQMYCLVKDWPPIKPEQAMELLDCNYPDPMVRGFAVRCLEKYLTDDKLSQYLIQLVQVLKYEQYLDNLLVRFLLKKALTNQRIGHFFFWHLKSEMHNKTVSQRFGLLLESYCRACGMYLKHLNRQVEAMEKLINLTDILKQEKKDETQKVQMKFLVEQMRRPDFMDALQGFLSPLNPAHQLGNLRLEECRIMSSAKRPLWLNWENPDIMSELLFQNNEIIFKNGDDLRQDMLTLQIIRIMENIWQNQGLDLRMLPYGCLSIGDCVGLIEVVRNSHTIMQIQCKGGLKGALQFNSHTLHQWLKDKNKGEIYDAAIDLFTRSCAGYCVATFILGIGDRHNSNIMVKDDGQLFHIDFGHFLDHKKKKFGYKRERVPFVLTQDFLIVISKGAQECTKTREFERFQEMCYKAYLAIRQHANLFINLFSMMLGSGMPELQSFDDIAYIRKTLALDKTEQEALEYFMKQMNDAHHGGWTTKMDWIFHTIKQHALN
Chain of PI3Kalpha (P27986 whole entry partner, canonical isoform): as the sequence (P27986 whole entry partner, canonical isoform) above

Regarding `N#Cc1cnc(-c2cccc3[nH]ncc23)nc1N1C[C@@H]2CC1CN2c1cccc(F)c1` (stereo in doubt) [Compound 1-20, 4-[(1R,4S)-5-(3-fluorophenyl)-2,5-diazabicyclo[2.2.1]hept-2-yl]-2-(1H-indazol-4-yl)pyrimidine-5-carbonitrile], the “Selectivity versus PI3Kalpha” value in test [1] stood at 9. Also, it took 200 nM to reach half-maximal inhibition in test [2] (IC50).

`N#Cc1cnc(-c2cccc3cnccc23)nc1N1C[C@@H]2CC1CN2c1cccc(F)c1` (stereo in doubt) [Compound 1-21, 4-[(1R,4S)-5-(3-fluorophenyl)-2,5-diazabicyclo[2.2.1]hept-2-yl]-2-isoquinolin-5-ylpyrimidine-5-carbonitrile]: the “Selectivity versus PI3Kalpha” value in test [1] is recorded as >10. Also, the IC50 in test [2] came out at 110 nM.

In the case of `N#Cc1cnc(N2CCc3[nH]ncc3C2)nc1N1CC2C[C@H]1CN2c1cccc(F)c1` (stereo in doubt) [Compound 1-22, 4-[(1S,4R)-5-(3-fluorophenyl)-2,5-diazabicyclo[2.2.1]hept-2-yl]-2-(1,4,6,7-tetrahydro-5H-pyrazolo[4,3-c]pyridin-5-yl)pyrimidine-5-carbonitrile], the “Selectivity versus PI3Kalpha” value in test [1] is 10. Moreover, the IC50 in test [2] came out at 950 nM.

Consider `N#Cc1cnc(N2CCOCC2)nc1N1CC2C[C@H]1CN2c1cccc(F)c1` (stereo in doubt) [Compound 1-23, 4-[(1S,4R)-5-(3-fluorophenyl)-2,5-diazabicyclo[2.2.1]hept-2-yl]-2-morpholin-4-ylpyrimidine-5-carbonitrile], for which, in test [1], the “Selectivity versus PI3Kalpha” value was >10. Besides, in test [2], the IC50 is 400 nM.

Consider `Cn1cc(-c2ncc(C#N)c(N3CC4C[C@H]3CN4C(=O)C3CC3)n2)cn1` (stereo in doubt) [Compound 2-1, 4-[(1S,4R)-5-(cyclopropylcarbonyl)-2,5-diazabicyclo[2.2.1]hept-2-yl]-2-(1-methyl-1H-pyrazol-4-yl)pyrimidine-5-carbonitrile], for which, in test [1], the “Selectivity versus PI3Kalpha” value is >10. Half-maximal inhibition in test [2] (IC50) required 160 nM.

Consider `Cn1cc(-c2ncc(C#N)c(N3CC4C[C@H]3CN4S(=O)(=O)C3CC3)n2)cn1` (stereo in doubt) [Compound 2-2, 4-[(1S,4R)-5-(cyclopropylsulfonyl)-2,5-diazabicyclo[2.2.1]hept-2-yl]-2-(1-methyl-1H-pyrazol-4-yl)pyrimidine-5-carbonitrile], for which, in test [1], the “Selectivity versus PI3Kalpha” value was >10. In test [2], this compound registered an IC50 of 1200 nM.

As to `Cn1cc(-c2ncc(C#N)c(N3CC4C[C@H]3CN4CC3CC3)n2)cn1` (stereo in doubt) [Compound 2-3, 4-[(1S,4R)-5-(cyclopropylmethyl)-2,5-diazabicyclo[2.2.1]hept-2-yl]-2-(1-methyl-1H-pyrazol-4-yl)pyrimidine-5-carbonitrile], the “Selectivity versus PI3Kalpha” value in test [1] worked out at 8. In test [2], 1400 nM corresponded to half-maximal inhibition (IC50).

For `CCNC(=O)N1C[C@@H]2CC1CN2c1nc(-c2cnn(C)c2)ncc1C#N` (stereo in doubt) [Compound 2-4, (1R,4S)-5-[5-cyano-2-(1-methyl-1H-pyrazol-4-yl)pyrimidin-4-yl]-N-ethyl-2,5-diazabicyclo[2.2.1]heptane-2-carboxamide], in test [1], the “Selectivity versus PI3Kalpha” value was 5. Moreover, the IC50 in test [2] stood at 2200 nM.

As for `Cn1cc(-c2ncc(C#N)c(N3CC4C[C@H]3CN4C(=O)C(C)(C)C)n2)cn1` (stereo in doubt) [Compound 2-5, 4-[(1S,4R)-5-(2,2-dimethylpropanoyl)-2,5-diazabicyclo[2.2.1]hept-2-yl]-2-(1-methyl-1H-pyrazol-4-yl)pyrimidine-5-carbonitrile], the “Selectivity versus PI3Kalpha” value in test [1] was >10. In test [2], this compound gave a 50% inhibitory concentration (IC50) of 190 nM.

On to `Cn1cc(-c2ncc(C#N)c(N3CC4C[C@H]3CN4C(=O)C(C)(C)CF)n2)cn1` (stereo in doubt) [Compound 2-6, 4-[(1S,4R)-5-(3-fluoro-2,2-dimethylpropanoyl)-2,5-diazabicyclo[2.2.1]hept-2-yl]-2-(1-methyl-1H-pyrazol-4-yl)pyrimidine-5-carbonitrile], for which, in test [1], the “Selectivity versus PI3Kalpha” value is given as >10. The compound also gave an IC50 in test [2] of 160 nM.

As to `Cn1cc(-c2ncc(C#N)c(N3CC4C[C@H]3CN4C(=O)C3(C)COC3)n2)cn1` (stereo in doubt) [Compound 2-7, 4-{(1S,4R)-5-[(3-methyloxetan-3-yl)carbonyl]-2,5-diazabicyclo[2.2.1]hept-2-yl}-2-(1-methyl-1H-pyrazol-4-yl)pyrimidine-5-carbonitrile], the “Selectivity versus PI3Kalpha” value in test [1] was >10. In test [2], this compound yielded an IC50 of 320 nM.

`COCC1(C(=O)N2C[C@@H]3CC2CN3c2nc(-c3cnn(C)c3)ncc2C#N)CC1` (stereo in doubt) [Compound 2-8, 4-[(1S,4R)-5-{[1-(methoxymethyl)cyclopropyl]carbonyl}-2,5-diazabicyclo[2.2.1]hept-2-yl]-2-(1-methyl-1H-pyrazol-4-yl)pyrimidine-5-carbonitrile]: in test [1], the “Selectivity versus PI3Kalpha” value is >10. In addition, half-maximal inhibition in test [2] (IC50) was put at 270 nM.

As for `Cn1cc(-c2ncc(C#N)c(N3CC4C[C@H]3CN4C(=O)C3CCC3)n2)cn1` (stereo in doubt) [Compound 2-9, 4-[(1S,4R)-5-(cyclobutylcarbonyl)-2,5-diazabicyclo[2.2.1]hept-2-yl]-2-(1-methyl-1H-pyrazol-4-yl)pyrimidine-5-carbonitrile], the “Selectivity versus PI3Kalpha” value in test [1] is on record as >10. This compound also had an IC50 in test [2] of 330 nM.

Turning to `Cn1cc(-c2ncc(C#N)c(N3CC4C[C@H]3CN4C(=O)c3cccs3)n2)cn1` (stereo in doubt) [Compound 2-10, 2-(1-methyl-1H-pyrazol-4-yl)-4-[(1S,4R)-5-(thiophen-2-ylcarbonyl)-2,5-diazabicyclo[2.2.1]hept-2-yl]pyrimidine-5-carbonitrile], in test [1], the “Selectivity versus PI3Kalpha” value is listed as >10. The compound further returned an IC50 in test [2] of 500 nM.

With `Cn1cc(-c2ncc(C#N)c(N3CC4C[C@H]3CN4C(=O)c3cocn3)n2)cn1` (stereo in doubt) [Compound 2-11, 2-(1-methyl-1H-pyrazol-4-yl)-4-[(1S,4R)-5-(1,3-oxazol-4-ylcarbonyl)-2,5-diazabicyclo[2.2.1]hept-2-yl]pyrimidine-5-carbonitrile], the “Selectivity versus PI3Kalpha” value in test [1] is on record as >10. Moreover, the IC50 in test [2] amounted to 1100 nM.

As for `Cn1cc(-c2ncc(C#N)c(N3CC4C[C@H]3CN4C(=O)CC3COC3)n2)cn1` (stereo in doubt) [Compound 2-12, 2-(1-methyl-1H-pyrazol-4-yl)-4-[(1S,4R)-5-(oxetan-3-ylacetyl)-2,5-diazabicyclo[2.2.1]hept-2-yl]pyrimidine-5-carbonitrile], in test [1], the “Selectivity versus PI3Kalpha” value was 10. The compound also showed an IC50 in test [2] of 480 nM.

With `CC(C)S(=O)(=O)N1C[C@@H]2CC1CN2c1nc(-c2cnn(C)c2)ncc1C#N` (stereo in doubt) [Compound 2-13, 4-{(1S,4R)-5-[(1-methylethyl)sulfonyl]-2,5-diazabicyclo[2.2.1]hept-2-yl}-2-(1-methyl-1H-pyrazol-4-yl)pyrimidine-5-carbonitrile], the “Selectivity versus PI3Kalpha” value in test [1] is given as >10. The IC50 in test [2] was 470 nM.

For `CCCS(=O)(=O)N1C[C@@H]2CC1CN2c1nc(-c2cnn(C)c2)ncc1C#N` (stereo in doubt) [Compound 2-14, 2-(1-methyl-1H-pyrazol-4-yl)-4-[(1S,4R)-5-(propylsulfonyl)-2,5-diazabicyclo[2.2.1]hept-2-yl]pyrimidine-5-carbonitrile], the “Selectivity versus PI3Kalpha” value in test [1] is given as >10. This compound also had a concentration for half-maximal inhibition (IC50) in test [2] of 620 nM.

What is called IC50 is the concentration that gives 50% inhibition.
